Assay results published in patent US12102089B2, “Method for inactivating mold spores” (DSM IP ASSETS B.V., priority 2017, dated 2024).

Tests used:
[1] = tested on: Paecilomyces variotti (ATCC 22319); assay: Heat treatment of Paecilomyces variotti spores in ice tea with natamycin, visual growth; format: cell-based; design: key to growth (+) or no growth (−): growth (+); no growth (−)
Protocol: Commercially available ice tea (Lipton, peach flavor, non-carbonated, 1.5 L) was adjusted to high water hardness by adding 1 ml of a solution of 39 g CaCl2 and 27 g MgCl2 added to 934 g water. ⅓ of this ice tea preparation (the pH of which was 3.15) was left as-such, ⅓ of the preparation was enriched with 5 ppm natamycin and ⅓ of the preparation was enriched with 10 ppm natamycin. Samples of 5 ml were made from each preparation in 15 ml sterile plastic tubes. Of each preparation 8 samples were pre-heated to the desired pasteurization temperature using a water bath. Temperatures used were RT, 60, 65, 70, 75, 80, 85 and 90° C. When the desired temperature was reached, 100 μl of a 2500 spores/ml spore suspension of Aspergillus niger ATCC 9029AA was added to each tube. Subsequently, the samples were kept for 30 seconds at the temperature in question in the water bath. Next, the samples were cooled on ice to a temperature of 25° C. Samples were incubated at 25° C. and visually examined for growth (formation of mold flakes or turbidity) for two months. Additionally, samples were enumerated according to ISO protocol 21527-1.2008 on day 0 (before heat treatment) and day 1 (after heat treatment) to count immediate loss of viability. […] For the results, see Table 1. […] Example 1 was repeated however with Paecilomyces variotti (ATCC 22319, 1000 spores/ml) instead of Aspergillus niger.

[2] = LC-MS/MS analysis of natamycin and mycosamine in heated ice tea sample; format: physicochemical; conditions: 10 ppm natamycin at t=0, heated at 70° C.
Protocol: For the analysis of mycosamine at low concentrations (ppb level) a sample preparation is used with a cation exchange SPE material to isolate mycosamine from the sample matrix and/or remove possible interfering impurities therefrom. The analysis was performed on LC-MS/MS on a ZIC-HILIC column. For the identification and (semi) quantification a reference of mycosamine was prepared. The concentration of mycosamine in this reference was determined with ^1H-NMR.

In the case of C[C@@H]1C/C=C/C=C/C=C/C=C/[C@H](O[C@@H]2O[C@H](C)[C@@H](O)[C@H](N)[C@@H]2O)C[C@@H]2O[C@](O)(C[C@@H](O)C[C@H]3O[C@@H]3/C=C/C(=O)O1)C[C@H](O)[C@H]2C(=O)O [natamycin], the germination ([1]; 90° C., in the presence of natamycin) is reported as “no germination occurred”, the germination ([1]; RT and 60° C., 5 or 10 ppm natamycin) is reported as “delayed germination” and the “growth (+) or no growth (−)” value ([1]; T 60, natamycin 5 ppm, day 1) is reported as “−”. The “growth (+) or no growth (−)” value ([1]; T 60, natamycin 5 ppm, day 2) was “−”, the “growth (+) or no growth (−)” value ([1]; T 60, natamycin 5 ppm, day 3) was “−” and the “growth (+) or no growth (−)” value ([1]; T 60, natamycin 5 ppm, day 4) was “−”. For the same molecule, the “growth (+) or no growth (−)” value ([1]; T 60, natamycin 5 ppm, day 5) was “−”, the “growth (+) or no growth (−)” value ([1]; T 60, natamycin 5 ppm, day 6) was “−” and the “growth (+) or no growth (−)” value ([1]; T 60, natamycin 5 ppm, day 7) was “−”. For the same molecule, the “growth (+) or no growth (−)” value ([1]; T 60, natamycin 5 ppm, day 8) was “−”, the “growth (+) or no growth (−)” value ([1]; T 60, natamycin 5 ppm, day 9) was “−” and the “growth (+) or no growth (−)” value ([1]; T 60, natamycin 5 ppm, day 10) was “+”. The “growth (+) or no growth (−)” value ([1]; T 60, natamycin 5 ppm, day 11) was “+”, the “growth (+) or no growth (−)” value ([1]; T 60, natamycin 5 ppm, day 12) was “+” and the “growth (+) or no growth (−)” value ([1]; T 60, natamycin 5 ppm, day 13) was “+”. For the same molecule, the “growth (+) or no growth (−)” value ([1]; T 60, natamycin 5 ppm, day 14) was “+”, the “growth (+) or no growth (−)” value ([1]; T 60, natamycin 5 ppm, day 15) was “+” and the “growth (+) or no growth (−)” value ([1]; T 60, natamycin 5 ppm, day 16) was “+”. For the same molecule, the “growth (+) or no growth (−)” value ([1]; T 60, natamycin 5 ppm, day 17) was “+”, the “growth (+) or no growth (−)” value ([1]; T 60, natamycin 5 ppm, day 50) was “+” and the “growth (+) or no growth (−)” value ([1]; T 60, natamycin 10 ppm, day 1) was “−”. The “growth (+) or no growth (−)” value ([1]; T 60, natamycin 10 ppm, day 2) was “−”, the “growth (+) or no growth (−)” value ([1]; T 60, natamycin 10 ppm, day 3) was “−” and the “growth (+) or no growth (−)” value ([1]; T 60, natamycin 10 ppm, day 4) was “−”. For the same molecule, the “growth (+) or no growth (−)” value ([1]; T 60, natamycin 10 ppm, day 5) was “−”, the “growth (+) or no growth (−)” value ([1]; T 60, natamycin 10 ppm, day 6) was “−” and the “growth (+) or no growth (−)” value ([1]; T 60, natamycin 10 ppm, day 7) was “−”. For the same molecule, the “growth (+) or no growth (−)” value ([1]; T 60, natamycin 10 ppm, day 8) was “−”, the “growth (+) or no growth (−)” value ([1]; T 60, natamycin 10 ppm, day 9) was “−” and the “growth (+) or no growth (−)” value ([1]; T 60, natamycin 10 ppm, day 10) was “−”. For the same molecule, the “growth (+) or no growth (−)” value ([1]; T 60, natamycin 10 ppm, day 11) was “−”, the “growth (+) or no growth (−)” value ([1]; T 60, natamycin 10 ppm, day 12) was “−” and the “growth (+) or no growth (−)” value ([1]; T 60, natamycin 10 ppm, day 13) was “−”. The “growth (+) or no growth (−)” value ([1]; T 60, natamycin 10 ppm, day 14) was “+”, the “growth (+) or no growth (−)” value ([1]; T 60, natamycin 10 ppm, day 15) was “+” and the “growth (+) or no growth (−)” value ([1]; T 60, natamycin 10 ppm, day 16) was “+”. For the same molecule, the “growth (+) or no growth (−)” value ([1]; T 60, natamycin 10 ppm, day 17) was “+”, the “growth (+) or no growth (−)” value ([1]; T 60, natamycin 10 ppm, day 50) was “+” and the “growth (+) or no growth (−)” value ([1]; T 65, natamycin 5 ppm, day 1) was “−”. For the same molecule, the “growth (+) or no growth (−)” value ([1]; T 65, natamycin 5 ppm, day 2) was “−”, the “growth (+) or no growth (−)” value ([1]; T 65, natamycin 5 ppm, day 3) was “−” and the “growth (+) or no growth (−)” value ([1]; T 65, natamycin 5 ppm, day 4) was “−”. For the same molecule, the “growth (+) or no growth (−)” value ([1]; T 65, natamycin 5 ppm, day 5) was “−”, the “growth (+) or no growth (−)” value ([1]; T 65, natamycin 5 ppm, day 6) was “−” and the “growth (+) or no growth (−)” value ([1]; T 65, natamycin 5 ppm, day 7) was “−”. The “growth (+) or no growth (−)” value ([1]; T 65, natamycin 5 ppm, day 8) was “−”, the “growth (+) or no growth (−)” value ([1]; T 65, natamycin 5 ppm, day 9) was “−” and the “growth (+) or no growth (−)” value ([1]; T 65, natamycin 5 ppm, day 10) was “−”. The “growth (+) or no growth (−)” value ([1]; T 65, natamycin 5 ppm, day 11) was “−”, the “growth (+) or no growth (−)” value ([1]; T 65, natamycin 5 ppm, day 12) was “−” and the “growth (+) or no growth (−)” value ([1]; T 65, natamycin 5 ppm, day 13) was “−”. For the same molecule, the “growth (+) or no growth (−)” value ([1]; T 65, natamycin 5 ppm, day 14) was “−”, the “growth (+) or no growth (−)” value ([1]; T 65, natamycin 5 ppm, day 15) was “−” and the “growth (+) or no growth (−)” value ([1]; T 65, natamycin 5 ppm, day 16) was “−”. The “growth (+) or no growth (−)” value ([1]; T 65, natamycin 5 ppm, day 17) was “−”, the “growth (+) or no growth (−)” value ([1]; T 65, natamycin 5 ppm, day 50) was “−” and the “growth (+) or no growth (−)” value ([1]; T 65, natamycin 10 ppm, day 1) was “−”. For the same molecule, the “growth (+) or no growth (−)” value ([1]; T 65, natamycin 10 ppm, day 2) was “−”, the “growth (+) or no growth (−)” value ([1]; T 65, natamycin 10 ppm, day 3) was “−” and the “growth (+) or no growth (−)” value ([1]; T 65, natamycin 10 ppm, day 4) was “−”. For the same molecule, the “growth (+) or no growth (−)” value ([1]; T 65, natamycin 10 ppm, day 5) was “−”, the “growth (+) or no growth (−)” value ([1]; T 65, natamycin 10 ppm, day 6) was “−” and the “growth (+) or no growth (−)” value ([1]; T 65, natamycin 10 ppm, day 7) was “−”. The “growth (+) or no growth (−)” value ([1]; T 65, natamycin 10 ppm, day 8) was “−”, the “growth (+) or no growth (−)” value ([1]; T 65, natamycin 10 ppm, day 9) was “−” and the “growth (+) or no growth (−)” value ([1]; T 65, natamycin 10 ppm, day 10) was “−”. The “growth (+) or no growth (−)” value ([1]; T 65, natamycin 10 ppm, day 11) was “−”, the “growth (+) or no growth (−)” value ([1]; T 65, natamycin 10 ppm, day 12) was “−” and the “growth (+) or no growth (−)” value ([1]; T 65, natamycin 10 ppm, day 13) was “−”. For the same molecule, the “growth (+) or no growth (−)” value ([1]; T 65, natamycin 10 ppm, day 14) was “−”, the “growth (+) or no growth (−)” value ([1]; T 65, natamycin 10 ppm, day 15) was “−” and the “growth (+) or no growth (−)” value ([1]; T 65, natamycin 10 ppm, day 16) was “−”. The “growth (+) or no growth (−)” value ([1]; T 65, natamycin 10 ppm, day 17) was “−”, the “growth (+) or no growth (−)” value ([1]; T 65, natamycin 10 ppm, day 50) was “−” and the “growth (+) or no growth (−)” value ([1]; T 70, natamycin 5 ppm, day 1) was “−”. For the same molecule, the “growth (+) or no growth (−)” value ([1]; T 70, natamycin 5 ppm, day 2) was “−”, the “growth (+) or no growth (−)” value ([1]; T 70, natamycin 5 ppm, day 3) was “−” and the “growth (+) or no growth (−)” value ([1]; T 70, natamycin 5 ppm, day 4) was “−”. For the same molecule, the “growth (+) or no growth (−)” value ([1]; T 70, natamycin 5 ppm, day 5) was “−”, the “growth (+) or no growth (−)” value ([1]; T 70, natamycin 5 ppm, day 6) was “−” and the “growth (+) or no growth (−)” value ([1]; T 70, natamycin 5 ppm, day 7) was “−”. The “growth (+) or no growth (−)” value ([1]; T 70, natamycin 5 ppm, day 8) was “−”, the “growth (+) or no growth (−)” value ([1]; T 70, natamycin 5 ppm, day 9) was “−” and the “growth (+) or no growth (−)” value ([1]; T 70, natamycin 5 ppm, day 10) was “−”. For the same molecule, the “growth (+) or no growth (−)” value ([1]; T 70, natamycin 5 ppm, day 11) was “−”, the “growth (+) or no growth (−)” value ([1]; T 70, natamycin 5 ppm, day 12) was “−” and the “growth (+) or no growth (−)” value ([1]; T 70, natamycin 5 ppm, day 13) was “−”. The “growth (+) or no growth (−)” value ([1]; T 70, natamycin 5 ppm, day 14) was “−”, the “growth (+) or no growth (−)” value ([1]; T 70, natamycin 5 ppm, day 15) was “−” and the “growth (+) or no growth (−)” value ([1]; T 70, natamycin 5 ppm, day 16) was “−”. For the same molecule, the “growth (+) or no growth (−)” value ([1]; T 70, natamycin 5 ppm, day 17) was “−”, the “growth (+) or no growth (−)” value ([1]; T 70, natamycin 5 ppm, day 50) was “−” and the “growth (+) or no growth (−)” value ([1]; T 70, natamycin 10 ppm, day 9) was “−”. For the same molecule, the “growth (+) or no growth (−)” value ([1]; T 70, natamycin 10 ppm, day 10) was “−”, the “growth (+) or no growth (−)” value ([1]; T 70, natamycin 10 ppm, day 11) was “−” and the “growth (+) or no growth (−)” value ([1]; T 70, natamycin 10 ppm, day 12) was “−”. The “growth (+) or no growth (−)” value ([1]; T 70, natamycin 10 ppm, day 13) was “−”, the “growth (+) or no growth (−)” value ([1]; T 70, natamycin 10 ppm, day 14) was “−” and the “growth (+) or no growth (−)” value ([1]; T 70, natamycin 10 ppm, day 15) was “−”. For the same molecule, the “growth (+) or no growth (−)” value ([1]; T 70, natamycin 10 ppm, day 16) was “−”, the “growth (+) or no growth (−)” value ([1]; T 70, natamycin 10 ppm, day 17) was “−” and the “growth (+) or no growth (−)” value ([1]; T 70, natamycin 10 ppm, day 50) was “−”. For the same molecule, the “natamycin found in sample” value ([2]; Example 1 ice tea sample (pH 3.15)) was < 0.04 mg/L, the “natamycin found in sample” value ([2]; Example 2 ice tea sample) was < 0.04 mg/L and the “natamycin found in sample” value ([2]; Example 3 ice tea sample) was < 0.04 mg/L.
